Source: patent US20240158446A1, “CYCLIC COMPOUND HAVING SELECTIVE INHIBITORY ACTION ON KRAS OVER HRAS AND NRAS” (CHUGAI SEIYAKU KABUSHIKI KAISHA, priority 2021, published 2024)
Where two headings read alike, the source gives them in different places. *1 amine or outer side, *2 acyl side, *3 side chain or, on linkers, in order; H or OH if unused. Where a SMILES comes first, the peptide text is derived from it. Bridges are numbered along the chain shown (N, C = ends). [ ]: non-standard residue; d: D form. The star is where a group is joined. hPhe(3-Cl-4-CF3) = N[C@@H](CCc1ccc(C(F)(F)F)c(Cl)c1)C(=O)O; NPrPhe(4-CF3) = CCCN[C@@H](Cc1ccc(C(F)(F)F)cc1)C(=O)O; NEtPhe(4-CF3) = CCN[C@@H](Cc1ccc(C(F)(F)F)cc1)C(=O)O; NMePhe(4-Me) = CN[C@@H](Cc1ccc(C)cc1)C(=O)O; X7 = CCN([C@H](C(=O)[*:2])C1CCCC1)[*:1]; NMeGly(cPent) = CN[C@H](C(=O)O)C1CCCC1; Pro(4S-Me) = C[C@@H]1CN[C@H](C(=O)O)C1; NMeD = CN[C@@H](CC(=O)O)C(=O)O; NMeL = CN[C@@H](CC(C)C)C(=O)O; Morpholide = C1CN(*)CCO1; NMeA = CN[C@@H](C)C(=O)O; Ac5c = NC1(C(=O)O)CCCC1; Aze = O=C(O)[C@@H]1CCN1; Sar = CNCC(=O)O

Assays:
[1] = target: GDP-bound KRAS wild-type protein (Homo sapiens, UniProt P01116); experiment: Binding to KRAS by surface plasmon resonance (SPR), Single Cycle Kinetics; conditions: GDP-bound KRAS wild-type protein, read-out: KRAS KD
[2] = target: GDP-bound NRAS wild-type protein (Homo sapiens, UniProt P01111); experiment: Binding to NRAS by surface plasmon resonance (SPR), Single Cycle Kinetics; conditions: SPR, GDP-bound NRAS wild-type protein vs GDP-bound KRAS wild-type protein
[3] = target: GDP-bound HRAS wild-type protein (Homo sapiens, UniProt P01112); experiment: Binding to HRAS by surface plasmon resonance (SPR), Single Cycle Kinetics; conditions: for HRAS/KRAS (ratio of KD value for HRAS to KD value for KRAS): SPR, GDP-bound HRAS wild-type protein vs GDP-bound KRAS wild-type protein
[4] = SPR Single Cycle Kinetics, 1:1 binding model
[5] = SPR, Single Cycle Kinetics, 1:1 binding model

GDP-bound NRAS wild-type protein, sequence (P01111 whole entry): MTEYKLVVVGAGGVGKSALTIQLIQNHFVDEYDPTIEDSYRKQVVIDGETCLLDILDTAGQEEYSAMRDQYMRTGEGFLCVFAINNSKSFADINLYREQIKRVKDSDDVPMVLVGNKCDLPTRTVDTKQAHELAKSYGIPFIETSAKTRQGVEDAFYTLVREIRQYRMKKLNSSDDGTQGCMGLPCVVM
GDP-bound HRAS wild-type protein, sequence (P01112 whole entry): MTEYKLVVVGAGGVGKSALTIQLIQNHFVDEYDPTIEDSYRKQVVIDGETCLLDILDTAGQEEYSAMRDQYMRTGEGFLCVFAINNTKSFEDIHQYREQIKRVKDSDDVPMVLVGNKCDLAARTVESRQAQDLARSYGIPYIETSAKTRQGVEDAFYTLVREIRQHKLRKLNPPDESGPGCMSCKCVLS
GDP-bound KRAS wild-type protein, sequence (P01116 whole entry): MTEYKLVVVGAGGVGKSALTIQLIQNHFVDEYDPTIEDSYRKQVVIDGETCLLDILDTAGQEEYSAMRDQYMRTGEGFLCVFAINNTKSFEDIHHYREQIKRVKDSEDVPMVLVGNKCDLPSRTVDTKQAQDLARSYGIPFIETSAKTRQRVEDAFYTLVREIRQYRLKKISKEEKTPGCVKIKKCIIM

SMILES | Kd [1, 4] [nM] | Kd ([1]; SPR, Single Cycle Kinetics) [nM] | HRAS/KRAS (ratio of KD value for HRAS to KD value for KRAS) [3] | also measured
CC[C@H](C)[C@@H]1NC(=O)[C@H](CC(C)C)N(C)C(=O)C[C@@H](C(=O)N2CCOCC2)N(C)C(=O)[C@H](C2CCCC2)N(C)C(=O)C2(CCCC2)NC(=O)[C@@H]2CCCN2C(=O)[C@H](CCc2ccc(C(F)(F)F)c(Cl)c2)NC(=O)CN(C)C(=O)[C@H](Cc2ccc(C)cc2)N(C)C(=O)[C@@H]2CCN2C(=O)[C@H](C)N(C)C1=O [PP0001] ([NMeL]I[NMeA][Aze][NMePhe(4-Me)][Sar][hPhe(3-Cl-4-CF3)]P[Ac5c][NMeGly(cPent)][NMeD]-Morpholide; lactam N-11) | 0.14 | – | C (A compound having a KD ratio of 0.1 or more and less than 3 is denoted as C) | NRAS/KRAS (ratio of KD value for NRAS to KD value for KRAS) [2]: C (A compound having a KD ratio of 0.1 or more and less than 3 is denoted as C)
CC[C@H](C)[C@@H]1NC(=O)[C@H](CC(C)C)N(C)C(=O)C[C@@H](C(=O)N2CCOCC2)N(C)C(=O)[C@H](C2CCCC2)N(C)C(=O)C2(CCCC2)NC(=O)[C@@H]2CCCN2C(=O)[C@H](CCc2ccc(C(F)(F)F)c(Cl)c2)NC(=O)CN(C)C(=O)[C@H](Cc2ccc(C(F)(F)F)cc2)N(CC)C(=O)[C@@H]2CCN2C(=O)[C@H](C)N(C)C1=O [PP0002] ([NMeL]I[NMeA][Aze][NEtPhe(4-CF3)][Sar][hPhe(3-Cl-4-CF3)]P[Ac5c][NMeGly(cPent)][NMeD]-Morpholide; lactam N-11) | 0.18 | – | C (A compound having a KD ratio of 0.1 or more and less than 3 is denoted as C) | NRAS/KRAS (ratio of KD value for NRAS to KD value for KRAS) [2]: C (A compound having a KD ratio of 0.1 or more and less than 3 is denoted as C)
CCO[C@@H]1C[C@H]2C(=O)NC3(CCC3)C(=O)N(C)[C@@H](C(CC)CC)C(=O)N(C)[C@H](C)CC(=O)N(C)[C@@H](CC3CCCC3)C(=O)N[C@@H]([C@@H](C)CC)C(=O)N(C)CC(=O)N(C)[C@H]3C/C=C\CCN(C3=O)[C@@H](Cc3ccc(F)cc3)C(=O)N(C)CC(=O)N[C@@H](CCc3cc(F)c(C(F)(F)F)c(F)c3)C(=O)N2C1 [PP1523] | – | – | – | Kd [1, 5]: 4.1 nM
CCO[C@@H]1C[C@H]2C(=O)NC3(CCC3)C(=O)N(C)[C@@H](C(CC)CC)C(=O)N3CCC[C@@H]3CC(=O)N(C)[C@@H](CC)C(=O)N[C@@H]([C@@H](C)CC)C(=O)N(C)CC(=O)N(C)[C@H]3C/C=C\CCN(C3=O)[C@@H](Cc3ccc(C(F)(F)F)cc3)C(=O)N(C)CC(=O)N[C@@H](CCc3cc(F)c(C(F)(F)F)c(F)c3)C(=O)N2C1 [PP1607] | – | – | – | Kd [1, 5]: 0.57 nM; HRAS/KRAS (ratio of KD value for HRAS to KD value for KRAS) ([3]; KD ratio class): A (a compound having 10 or more and less than 20 is denoted as A)
CCO[C@@H]1C[C@H]2C(=O)NC3(CC(C)(C)C3)C(=O)N(C)[C@@H](C(CC)CC)C(=O)N(C)[C@H](C(=O)N3CCCCC3)CC(=O)N(C)[C@H]3CCC/C=C/c4ccc(cc4)C[C@@H](C(=O)N(C)CC(=O)N[C@@H](CCc4cc(F)c(C(F)(F)F)c(F)c4)C(=O)N2C1)N1CC/C=C\C[C@@H](C1=O)N(C)C(=O)CN(C)C(=O)[C@H]([C@@H](C)CC)NC3=O [PP2952] | 0.79 | – | – | –
CCO[C@@H]1C[C@H]2C(=O)NC3(CCC3)C(=O)N(C)[C@@H](C(CC)CC)C(=O)N(C)[C@H](C(=O)N3CCCCC3)CC(=O)N(C)[C@H]3CCCCC/C=C/c4ccc(cc4)C[C@@H](C(=O)N(C)CC(=O)N[C@@H](CCc4ccc(Cl)c(Cl)c4)C(=O)N2C1)N1CC/C=C\C[C@@H](C1=O)N(C)C(=O)CN(C)C(=O)[C@H]([C@@H](C)CC)NC3=O [PP3051] | – | 0.75 | – | –

More lines, main results first:

Kd [1, 4] [nM] | Kd ([1]; SPR, Single Cycle Kinetics) [nM] | SMILES | HRAS/KRAS (ratio of KD value for HRAS to KD value for KRAS) [3] | also measured
2 | – | CC[C@H](C)[C@@H]1NC(=O)[C@H](CC(C)C)N(C)C(=O)C[C@@H](C(=O)N2CCOCC2)N(C)C(=O)[C@H](C2CCCC2)N(C)C(=O)C2(CCCC2)NC(=O)[C@@H]2CCCN2C(=O)[C@H](CCc2ccc(C(F)(F)F)c(Cl)c2)NC(=O)CN(C)C(=O)[C@H](C2CCCC2)N(CC)C(=O)[C@@H]2CCN2C(=O)[C@H](C)N(C)C1=O [PP0003] ([NMeL]I[NMeA][Aze][X7][Sar][hPhe(3-Cl-4-CF3)]P[Ac5c][NMeGly(cPent)][NMeD]-Morpholide; lactam N-11) | C (A compound having a KD ratio of 0.1 or more and less than 3 is denoted as C) | NRAS/KRAS (ratio of KD value for NRAS to KD value for KRAS) [2]: C (A compound having a KD ratio of 0.1 or more and less than 3 is denoted as C)
0.18 | – | CCCN1C(=O)[C@@H]2CCN2C(=O)[C@H](C)N(C)C(=O)[C@H]([C@@H](C)CC)NC(=O)[C@H](CC(C)C)N(C)C(=O)C[C@@H](C(=O)N2CCOCC2)N(C)C(=O)[C@H](C2CCCC2)N(C)C(=O)C2(CCCC2)NC(=O)[C@@H]2C[C@H](C)CN2C(=O)[C@H](CCc2ccc(C(F)(F)F)c(Cl)c2)NC(=O)CN(C)C(=O)[C@@H]1Cc1ccc(C(F)(F)F)cc1 [PP0455] ([NMeL]I[NMeA][Aze][NPrPhe(4-CF3)][Sar][hPhe(3-Cl-4-CF3)][Pro(4S-Me)][Ac5c][NMeGly(cPent)][NMeD]-Morpholide; lactam N-11) | – | –
400 | – | CC[C@H](C)[C@@H]1NC(=O)[C@H](CC(C)C)N(C)C(=O)C[C@@H](C(=O)N2CCOCC2)N(C)C(=O)[C@H](C2CCCC2)NC(=O)C2(CCCC2)NC(=O)[C@@H]2CCCN2C(=O)[C@H](CCc2cc(F)c(C(F)(F)F)c(F)c2)NC(=O)CN(C)C(=O)[C@H](Cc2ccc(C(F)(F)F)cc2)N2CCCCC[C@@H](C2=O)N(C)C(=O)CN(C)C1=O [PP0478] | – | –
1.9 | – | CCC[C@H]1C(=O)N[C@@H]([C@@H](C)CC)C(=O)N(C)CC(=O)N(C)[C@H]2C/C=C\CCN(C2=O)[C@@H](Cc2ccc(C)cc2)C(=O)N(C)CC(=O)N[C@@H](CCc2ccc(Cl)c(OC)c2)C(=O)N2C[C@H](OCC)C[C@H]2C(=O)NC2(CC(C)(C)C2)C(=O)N(C)[C@@H](C(CC)CC)C(=O)N(C)[C@H](C(=O)N(C)C)CC(=O)N1C [PP2791] | – | HRAS/KRAS (ratio of KD value with respect to GDP-bound HRAS wild-type protein to KD value with respect to KRAS) ([3]; SPR KD ratio HRAS/KRAS, class symbols): A (a compound having 10 or more and less than 20 is denoted as A)
– | 0.052 | CCO[C@@H]1C[C@H]2C(=O)NC3(CC(C)(C)C3)C(=O)N(C)[C@@H](C(CC)CC)C(=O)N(C)[C@H](C(=O)N(C)C)CC(=O)N(C)[C@H]3CCCC/C=C/c4ccc(cc4)C[C@@H](C(=O)N(C)CC(=O)N[C@@H](CCc4cc(F)c(C(F)(F)F)c(F)c4)C(=O)N2C1)N1CC/C=C\C[C@@H](C1=O)N(C)C(=O)CN(C)C(=O)[C@H]([C@@H](C)CC)NC3=O [PP3044] | – | –
– | 0.2 | CCO[C@@H]1C[C@H]2C(=O)NC3(CCC3)C(=O)N(C)[C@@H](C3CCCC3)C(=O)N(C)[C@H](C(=O)N3CCCC3)CC(=O)N(C)[C@H]3CCCCC/C=C/c4ccc(cc4)C[C@@H](C(=O)N(C)CC(=O)N[C@@H](CCc4ccc(Cl)c(Cl)c4)C(=O)N2C1)N1CC/C=C\C[C@@H](C1=O)N(C)C(=O)CN(C)C(=O)[C@H]([C@@H](C)CC)NC3=O [PP3049] | – | –
– | 0.17 | CCO[C@@H]1C[C@H]2C(=O)NC3(CC(C)(C)C3)C(=O)N(C)[C@@H](C3CCCC3)C(=O)N(C)[C@H](C(=O)N(C)C)CC(=O)N(C)[C@H]3CCCCCCc4ccc(cc4)C[C@@H](C(=O)N(C)CC(=O)N[C@@H](CCc4ccc(C(F)(F)F)c(OC)c4)C(=O)N2C1)N1CC/C=C\C[C@@H](C1=O)N(C)C(=O)CN(C1CC1)C(=O)[C@H]([C@@H](C)CC)NC3=O [PP3070] | B (a compound having 3 or more and less than 10 is denoted as B) | –
